Source: US20140206682A1, “COMPOUNDS AND COMPOSITIONS AS PDGFR KINASE INHIBITORS” (NOVARTIS PHARMACEUTICALS UK LIMITED, priority 2011, published 2014)
pIC50: −log10 of the molar value.

What follows are compounds tested on PDGFR (assay: Rat A10 cell proliferation assay). Details: Table 1; Rat A10 cells, recombinant rat PDGF-BB, CellTiter-Glo after 68 hours.
Assay type: cell-based
In short: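 Rat A10 cells in DMEM with 1% FBS and 10 ng/mL rat PDGF-BB, preincubated 4 h at 37 °C, then exposed to 3-fold serially diluted compound for 68 h. Viability/proliferation read as CellTiter-Glo luminescence.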

Structure (SMILES) | pIC50
Cc1ccn2c(C(=O)Nc3cc(C(=O)N[C@H]4CCCC[C@@H]4O)ccc3F)cnc2c1 [F115, N-(2-fluoro-5-{[(1S,2S)-2-hydroxycyclohexyl]carbamoyl}phenyl)-7-methylimidazo[1,2-a]pyridine-3-carboxamide] | 7.36
Cc1ccc2ncc(C(=O)Nc3cc(C(=O)N[C@@H]4c5ccccc5C[C@@H]4O)ccc3F)n2c1 [F17, N-(2-fluoro-5-{[(1R,2S)-2-hydroxy-2,3-dihydro-1H-inden-1-yl]carbamoyl}phenyl)-6-methylimidazo[1,2-a]pyridine-3-carboxamide] | 7.22
O=C(NC[C@@H]1CCCC[C@H]1O)c1ccc(F)c(NC(=O)c2cnc3ccccn23)c1 [F116, N-[2-fluoro-5-({[(1S,2R)-2-hydroxycyclohexyl]methyl}carbamoyl)phenyl]imidazo[1,2-a]pyridine-3-carboxamide] | 7.19
O=C(N[C@H](CO)c1ccccc1)c1ccc(F)c(NC(=O)c2cnc3ccccn23)c1 [F112, N-(2-fluoro-5-{[(1S)-2-hydroxy-1-phenylethyl]carbamoyl}phenyl)imidazo[1,2-a]pyridine-3-carboxamide] | 7.12
CN(C)CCCOc1ccc(-c2ccn3c(C(=O)Nc4cc(C(=O)NC5Cc6ccccc6C5O)ccc4F)cnc3c2)cn1 (stereo not drawn) [F13, 7-{6-[3-(dimethylamino)propoxy]pyridin-3-yl}-N-{2-fluoro-5-[(1-hydroxy-2,3-dihydro-1H-inden-2-yl)carbamoyl]phenyl}imidazo[1,2-a]pyridine-3-carboxamide] | 7.25
Cn1nccc1-c1ccn2c(C(=O)Nc3cc(C(=O)N[C@H]4Cc5ccccc5[C@H]4O)ccc3F)cnc2c1 [F16, N-(2-fluoro-5-{[(1R,2S)-1-hydroxy-2,3-dihydro-1H-inden-2-yl]carbamoyl}phenyl)-7-(1-methyl-1H-pyrazol-5-yl)imidazo[1,2-a]pyridine-3-carboxamide] | 7.24
Cn1nccc1-c1ccn2c(C(=O)Nc3cc(C(=O)N[C@@H](CO)[C@@H](O)c4ccccc4)ccc3F)cnc2c1 [F128, N-(5-{[(1S,2S)-1,3-dihydroxy-1-phenylpropan-2-yl]carbamoyl}-2-fluorophenyl)-7-(1-methyl-1H-pyrazol-5-yl)imidazo[1,2-a]pyridine-3-carboxamide] | 7.25
Cn1nccc1-c1ccn2c(C(=O)Nc3cc(C(=O)N[C@@H]4Cc5ccccc5[C@@H]4O)ccc3F)cnc2c1 [F15, N-(2-fluoro-5-{[(1S,2R)-1-hydroxy-2,3-dihydro-1H-inden-2-yl]carbamoyl}phenyl)-7-(1-methyl-1H-pyrazol-5-yl)imidazo[1,2-a]pyridine-3-carboxamide] | 7.36
COC[C@H](NC(=O)c1ccc(F)c(NC(=O)c2cnc3ccccn23)c1)[C@@H](O)c1ccccc1 [F118, N-(2-fluoro-5-{[(1S,2S)-1-hydroxy-3-methoxy-1-phenylpropan-2-yl]carbamoyl}phenyl)imidazo[1,2-a]pyridine-3-carboxamide] | 7.39
Cc1ccc(C(=O)N[C@H]2c3ccccc3C[C@@H]2O)cc1NC(=O)c1cnc2ccccn12 [F23, N-(5-{[(1S,2S)-2-hydroxy-2,3-dihydro-1H-inden-1-yl]carbamoyl}-2-methylphenyl)imidazo[1,2-a]pyridine-3-carboxamide] | 7.68
O=C(N[C@@H]1c2cc(F)ccc2C[C@@H]1O)c1ccc(F)c(NC(=O)c2cnc3ccc(F)cn23)c1 [F113, 6-fluoro-N-(2-fluoro-5-{[(1R,2S)-6-fluoro-2-hydroxy-2,3-dihydro-1H-inden-1-yl]carbamoyl}phenyl)imidazo[1,2-a]pyridine-3-carboxamide] | 6.95
COC[C@H](NC(=O)c1ccc(F)c(NC(=O)c2cnc3cc(-c4ccnn4C)ccn23)c1)[C@@H](O)c1ccccc1 [F129, N-(2-fluoro-5-{[(1S,2S)-1-hydroxy-3-methoxy-1-phenylpropan-2-yl]carbamoyl}phenyl)-7-(1-methyl-1H-pyrazol-5-yl)imidazo[1,2-a]pyridine-3-carboxamide] | 7.85

Same assay, conditions: Table 2; Rat A10 cells, recombinant rat PDGF-BB, CellTiter-Glo after 68 hours

Structure (SMILES) | pIC50
O=C(N[C@H]1c2ccccc2C[C@H]1O)c1ccc(F)c(NC(=O)c2cnc3cc(F)ccn23)c1 [F60, 7-fluoro-N-(2-fluoro-5-{[(1S,2R)-2-hydroxy-2,3-dihydro-1H-inden-1-yl]carbamoyl}phenyl)imidazo[1,2-a]pyridine-3-carboxamide] | 6.22
Cc1ccc2ncc(C(=O)Nc3cc(C(=O)N[C@@H]4c5ccc(Cl)cc5C[C@@H]4O)ccc3F)n2c1 (stereo in doubt) [F41, N-(5-{[(1R,2S)-5-chloro-2-hydroxy-2,3-dihydro-1H-inden-1-yl]carbamoyl}-2-fluorophenyl)-6-methylimidazo[1,2-a]pyridine-3-carboxamide] | 6.57
[2H]c1c([2H])c([2H])n2c(C(=O)Nc3cc(C(=O)N[C@H]4c5ccccc5C[C@H]4O)ccc3F)cnc2c1[2H] [F55, N-(2-fluoro-5-{[(1S,2R)-2-hydroxy-2,3-dihydro-1H-inden-1-yl]carbamoyl}phenyl)-5,6,7,8-tetrahydrogenioimidazo[1,2-a]pyridine-3-carboxamide] | 6.32
O=C(N[C@@H](CO)c1ccccc1)c1ccc(F)c(NC(=O)c2cnc3ccccn23)c1 [F86, N-(2-fluoro-5-{[(1R)-2-hydroxy-1-phenylethyl]carbamoyl}phenyl)imidazo[1,2-a]pyridine-3-carboxamide] | 5.82
O=C(NCC(O)C(F)(F)F)c1ccc(F)c(NC(=O)c2cnc3ccccn23)c1 (stereo not drawn) [F63, N-{2-fluoro-5-[(3,3,3-trifluoro-2-hydroxypropyl)carbamoyl]phenyl}imidazo[1,2-a]pyridine-3-carboxamide] | 5.97
O=C(NCC1(O)CCCCC1)c1cccc(NC(=O)c2cnc3ccccn23)c1 [F64] | 5.96
O=C(NC(CO)c1ccccc1)c1cccc(NC(=O)c2cnc3ccccn23)c1 (stereo not drawn) [F65, N-{3-[(2-hydroxy-1-phenylethyl)carbamoyl]phenyl}imidazo[1,2-a]pyridine-3-carboxamide] | 5.95
COc1ccc2ncc(C(=O)Nc3cc(C(=O)N[C@H]4c5ccccc5C[C@H]4O)ccc3F)n2c1 [F35, N-(2-fluoro-5-{[(1S,2R)-2-hydroxy-2,3-dihydro-1H-inden-1-yl]carbamoyl}phenyl)-6-methoxyimidazo[1,2-a]pyridine-3-carboxamide] | 6.64
O=C(N[C@@H](c1ccccc1)[C@H](O)CO)c1ccc(F)c(NC(=O)c2cnc3ccccn23)c1 [F101, N-(5-{[(1S,2S)-2,3-dihydroxy-1-phenylpropyl]carbamoyl}-2-fluorophenyl)imidazo[1,2-a]pyridine-3-carboxamide] | 6.37
CN(C)CCCOc1ccc(-c2ccn3c(C(=O)Nc4cc(C(=O)N[C@@H]5Cc6ccccc6[C@@H]5O)ccc4F)cnc3c2)cn1 [F39, 7-{6-[3-(dimethylamino)propoxy]pyridin-3-yl}-N-(2-fluoro-5-{[(1S,2R)-1-hydroxy-2,3-dihydro-1H-inden-2-yl]carbamoyl}phenyl)imidazo[1,2-a]pyridine-3-carboxamide] | 6.60
O=C(N[C@@H]1CCCC[C@H]1O)c1ccc(F)c(NC(=O)c2cnc3ccccn23)c1 [F56, N-(2-fluoro-5-{[(1R,2R)-2-hydroxycyclohexyl]carbamoyl}phenyl)imidazo[1,2-a]pyridine-3-carboxamide] | 6.28
O=C(N[C@H]1Cc2ccccc2[C@H]1O)c1ccc(F)c(NC(=O)c2cnc3ccccn23)c1 (stereo in doubt) [F46, N-(2-fluoro-5-{[(1R,2S)-1-hydroxy-2,3-dihydro-1H-inden-2-yl]carbamoyl}phenyl)imidazo[1,2-a]pyridine-3-carboxamide] | 6.46
O=C(NC[C@@H](O)c1cccc(O)c1)c1ccc(F)c(NC(=O)c2cnc3ccccn23)c1 [F97, N-(2-fluoro-5-{[(2S)-2-hydroxy-2-(3-hydroxyphenyl)ethyl]carbamoyl}phenyl)imidazo[1,2-a]pyridine-3-carboxamide] | 6.18
C[C@@H]1CC[C@H](O)[C@H](C)N1CCNC(=O)c1ccc(F)c(NC(=O)c2cnc3cc(-c4ccnn4C)ccn23)c1 [F109, N-[2-fluoro-5-({2-[(2S,3S,6R)-3-hydroxy-2,6-dimethylpiperidin-1-yl]ethyl}carbamoyl)phenyl]-7-(1-methyl-1H-pyrazol-5-yl)imidazo[1,2-a]pyridine-3-carboxamide] | 6.53
C[C@H](NC(=O)c1ccc(F)c(NC(=O)c2cnc3ccccn23)c1)[C@@H](O)c1ccccc1 [F95, N-(2-fluoro-5-{[(1S,2S)-1-hydroxy-1-phenylpropan-2-yl]carbamoyl}phenyl)imidazo[1,2-a]pyridine-3-carboxamide] | 6.66
O=C(NC(CO)c1ccccc1)c1cccc(NC(=O)c2cnc3ccccn23)c1 (stereo in doubt) [F44, N-(3-{[(1S)-2-hydroxy-1-phenylethyl]carbamoyl}phenyl)imidazo[1,2-a]pyridine-3-carboxamide] | 6.51
O=C(N[C@@H]1CCC[C@@H]1O)c1ccc(F)c(NC(=O)c2cnc3ccccn23)c1 (stereo in doubt) [F66, N-(2-fluoro-5-{[(1R,2S)-2-hydroxycyclopentyl]carbamoyl}phenyl)imidazo[1,2-a]pyridine-3-carboxamide] | 5.93
CC[C@@H](CO)NC(=O)c1cccc(NC(=O)c2cnc3ccccn23)c1 [F79, N-(3-{[(2S)-1-hydroxybutan-2-yl]carbamoyl}phenyl)imidazo[1,2-a]pyridine-3-carboxamide] | < 5.00
O=C(NCC1(CO)CCCC1)c1ccc(F)c(NC(=O)c2cnc3ccccn23)c1 [F90, N-(2-fluoro-5-({[1-(hydroxymethyl)cyclopentyl]methyl}carbamoyl)phenyl]imidazo[1,2-a]pyridine-3-carboxamide] | 5.75
O=C(N[C@H]1CCCC1O)c1ccc(F)c(NC(=O)c2cnc3ccccn23)c1 (stereo in doubt) [F62, N-(2-fluoro-5-{[(1S,2S)-2-hydroxycyclopentyl]carbamoyl}phenyl)imidazo[1,2-a]pyridine-3-carboxamide] | 6.16
O=C(NC1(CO)CCCC1)c1cccc(NC(=O)c2cnc3ccccn23)c1 [F77, N-(3-{[1-(hydroxymethyl)cyclopentyl]carbamoyl}phenyl)imidazo[1,2-a]pyridine-3-carboxamide] | 5.02
